In patent publication US12593844B2, “Method and compounds to induce plant tolerance against arthropod pests” (Universiteit Gent, priority 2018, dated 2026):
Like-named read-outs stand apart in the source and are kept apart here.

What was measured:
[1] = tested on: lignification in the Casparian strip; settings: five day old seedlings grown in vitro, continuous exposure to 10 μM; Van de Wouwer et al., 2016; cited from earlier work
[2] = tested on: Arabidopsis thaliana seedlings; settings: continuous exposure of seedlings; Steenackers et al. 2016; read-out: IC50-root (dose required to reduce primary root elongation by 50%); cited from earlier work
C4H gene = C4H gene expression in root system of rice plants after foliar treatment; format: in vivo, Oryza sativa cv. Bomba; settings: fourteen-day old rice plants, foliar treatment 24 and 3 hours prior to harvest, 100 μM
Description: Techniques for measuring and determining the (effect on) activity of C4H are well known to the one of ordinary skill in the art. Useful methods to determine inhibition of C4H activity are (incorporated by reference): • Measurement of the conversion efficiency of trans-cinnamic acid labeled with ^13C or ^14C in the presence of a potential C4H inhibitor in plant cell cultures or in yeast microsomes in which the CYP73A1 is expressed (as described in Schoch et al. 2002; Van de Wouwer et al. 2016; Schalk et al. 1998). Representative inhibition kinetics values obtained in cell suspensions for both competitive and irreversible C4H inhibitors can be found in Table 1 in Schoch et al., 2002 (incorporated by reference). • Inhibition of the C4H enzyme increases the concentration of free trans-cinnamic acid, which is rapidly conjugated in planta. The accumulation of trans-cinnamic acid amino acid conjugates, which can be quantified using HPLC-MS, can be used as a proxy measure for C4H inhibition in planta. This approach is outlined in Steenackers et al. 2016. […] Representative values for the increase in the quantity of trans-cinnamic acid conjugates are found in Supplemental Figure S2 in Steenackers et al. 2016 (incorporated by reference). • Inhibition of the C4H enzyme causes a compensatory upregulation of the C4H gene, as shown in Example 20. […]

Tetranychus urticae [3] = experiment: Acute (direct) toxicity to spider mites sprayed on leaf discs; format: in vivo; settings: 300 μM spray, after 24 h
Protocol: Tetranychus urticae—Spider mites of a laboratory reference strain were collected and placed on arenas consisting of a square bean leaf disc, placed on wet cotton wool and lined with paper tissue. Each arena received 25 to 30 adult female mites. The arenas were then sprayed in a custom-build spray tower with either 300 μM PA or control solution, six replicates each. The mites were incubated at 25° C., 18:6 L:D. Mortality was scored after 24 h. Mites were scored as either drowned (in water barrier), alive or dead (not moving its own body length within 10 seconds after prodding with a tiny brush).
T. urticae—Direct toxicity of PA to spider mites was evaluated by spraying mites on leaf disks with either 300 μM PA or control solution.

Tetranychus urticae [4] = experiment: Two-spotted spider mite reproduction on tomato after foliar spray; format: in vivo; settings: 300 μM foliar spray, ten days after inoculation with ten females
Protocol: Tomato (cv. Moneymaker) seeds were obtained from Vreeken's Zaden (Dordrecht, the Netherlands). Seeds were germinated on potting soil at 22° C.; seedlings were then transferred to individual pots filled with potting soil and placed in a growth chamber at 24° C. with 16 hours per day of fluorescent light.
(§1) A 100 mM piperonylic acid stock was prepared by dissolving piperonylic acid (Sigma-Aldrich, Saint-Louis, USA) in DMSO (Duchefa Biochemie, Haarlem, the Netherlands). Before use, this stock solution was diluted with distilled water to a concentration of 300 μM and mixed with 0.1 v/v % Tween 20. Working solutions of 1000 μM PA (Aculops experiment) were prepared in a similar manner from a 300 mM stock solution. The resulting spraying solution was applied to plants until run-off using an atomizer. […]
Tomato plants in the early four-leaf stage were inoculated with T. urticae by placing ten adult females on the second leaf of each plant. […] All moving mites present on the leaf were counted (regardless of life stage).
Images of tomato leaves damaged by S. exigua were analyzed using the ImageJ software. For T. urticae damage, the total area of the second leaf of each plant was quantified using the polygon selection tool. Then, the total area of chlorotic patches on the leaf was measured in the same manner and the ratio of both values was calculated to obtain the percentage of chlorotic leaf.

Rhopalosiphum padi [5] = experiment: Bird cherry-oat aphid reproduction on wheat, second experiment (synchronized aphids); format: in vivo; settings: 300 μM foliar spray, ten days
Protocol: (§2) Winter wheat (cv. Sahara) seeds were obtained from Aveve Agrarisch (Landen, Belgium). Seeds were washed with a 10% ethanol solution to remove residual fungicide traces and then germinated on wet paper at room temperature. Seedlings were transferred to potting soil and placed in a growth chamber at 22° C. with 16 hours per day of fluorescent light.
as §1, with “atomizer. As a control, a solution consisting of an equivalent amount of DMSO and Tween 20 was used in the same manner.” for “atomizer.”
(§3) In the second experiment, R. padi aphids were reared on barley plants grown at room temperature. […] Twenty-four hours later, the number of remaining adults on each pot was recorded. Ten days later, the number of aphids in each pot was counted. The reproductive factor was calculated by dividing the number of aphids counted after ten days by the number of remaining adult females twenty-four hours after inoculation.

Aculops lycopersici [6] = experiment: Tomato russet mite population growth on tomato; format: in vivo; settings: ten days after inoculation with 30 mites
Protocol: (§4) A 100 mM piperonylic acid stock was prepared by dissolving piperonylic acid (Sigma-Aldrich, Saint-Louis, USA) in DMSO (Duchefa Biochemie, Haarlem, the Netherlands). Before use, this stock solution was diluted with distilled water to a concentration of 300 μM and mixed with 0.1 v/v % Tween 20. Working solutions of 1000 μM PA (Aculops experiment) were prepared in a similar manner from a 300 mM stock solution. The resulting spraying solution was applied to plants until run-off using an atomizer. As a control, a solution consisting of an equivalent amount of DMSO and Tween 20 was used in the same manner. Plants were sprayed twice, one and eight days before inoculation. The tomato plants used in the spider mite experiment were sprayed a final time five days after inoculation, but only on the non-inoculated leaves to avoid direct effects of the spray on the mites.
A. lycopersici was reared on tomato plants in an incubator at 27° C.; 50% RH and 16:8 L:D. For inoculation of the PA-treated (300 μM or 1000 μM) or Control plants, 30 mites were transferred with a fine brush to a small leaf disk (1 cm), which was then placed on top of the plants. The mites were allowed the reproduce on the tomato plants during ten days, after which the total number of mites was compared.

Bemisia tabaci = experiment: Tobacco whitefly egg development on cotton after foliar spray; format: in vivo; settings: 300 μM foliar spray
Protocol: Cotton seeds were germinated in individual pots filled with potting soil and placed in a greenhouse with supplemental lighting (16 hours of light per day).
as §4
B. tabaci (biotype Q) was reared on cotton plants under controlled laboratory conditions. Approximately sixty mixed-sex adults were collected and placed in ventilated vials attached to the leaves of two-week old cotton plants. After being allowed to oviposit for 24 hours, the adults were removed. Eight days after oviposition, leaves were detached and the number of unhatched eggs, crawlers and nymphs per plant was recorded.

[7] = tested on: Arabidopsis thaliana seedlings; experiment: Primary root elongation of Arabidopsis thaliana seedlings (IC50-root); format: in vivo; settings: continuous exposure of seedlings, unpublished data, read-out: IC50-root (dose required to reduce primary root elongation by 50%)
Rhopalosiphum padi [8] = experiment: Bird cherry-oat aphid reproduction on wheat, first experiment; format: in vivo; settings: 300 μM foliar spray, ten days
Protocol: as §2
as §1, with “atomizer. As a control, a solution consisting of an equivalent amount of DMSO and Tween 20 was used in the same manner.” for “atomizer.”
as §3, with “first” for “second”

Spodoptera exigua = experiment: Acute (direct) toxicity to Spodoptera exigua L3 larvae; format: in vivo; settings: 300 μM, out of 30 larvae (control 29)
Protocol: Spodoptera exigua—S. exigua was reared on an artificial diet in a 24° C. incubator. Recently molted L3 larvae were placed in petri dishes containing tissue paper and 2 g of artificial feed pellets. Both tissue paper and pellets were wetted with 10 ml of either distilled water or distilled water containing 300 μM PA. Twenty-four and seventy-two hours later, the number of surviving caterpillars was counted. A caterpillar was considered alive if it was either actively moving, or if it moved when gently prodded. It was also recorded whether a caterpillar was feeding (present on a feed pellet) to measure whether PA-treated feed pellets were repellent to the caterpillar.
S. exigua—Direct toxicity of piperonylic acid (PA) was determined using the protocol outlined in the materials and methods section. Briefly, 30 recently molted L3 larvae were placed per petri dish containing tissue paper and food pellets that had been wetted with either a 300 μM piperonylic acid solution or a water control.

[9] = tested on: Frankliniella occidentalis; experiment: Western flower thrips progeny on pepper plants; format: in vivo; settings: 300 μM, progeny counted three days after four-day infestation with ten adults (control 19.0±1.84)
Protocol: Pepper seedlings (cv. Cayenne long slim) were transferred to individual pots with potting soil two weeks after sowing. Plants were maintained in a growth room (25° C., 16:8 L:D) for two additional weeks. Plants were removed from the soil and placed with their roots in water (to accommodate the Plexiglas cage system) at the onset of thrips infestation (4 weeks old).
as §4, with “The tomato plants used in the spider mite experiment were sprayed a final time five days after inoculation, but only on the non-inoculated leaves to avoid direct effects of the spray on the mites.” left out
F. occidentalis was reared on bean pods in an incubator at 28° C.; 70% RH and 16:8 L:D. For inoculation of the PA-treated (300 μM) or Control plants, 10 females (two days old since turning adult) were transferred with a fine brush to a pepper plant inside a Plexiglas cage. After four days, all females were removed, while their progeny was counted three days later.

Aculops lycopersici [10] = experiment: Acute (direct) toxicity to russet mites sprayed on leaf disks; format: in vivo; settings: 300 μM spray, after 24 h
Protocol: Aculops lycopersici—Tomato russet mites were collected from a lab culture and transferred to a tomato leaf disk placed on agar. Each disk received 25 to 30 adult mites. The disks with mites were then sprayed in a custom-build spray tower with either 300 μM PA or control solution, six replicates each. The russet mites were incubated at 25° C., 18:6 L:D. Mortality was scored after 24 h. Mites were scored as either lost (in agar barrier), alive or dead.
A. lycopersici—Direct toxicity of PA to russet mites was evaluated by spraying mites on leaf disks with either 300 μM PA or control solution.

Steneotarsonemus spinki = experiment: Greenhouse experiment: rice yield and fertility under panicle rice mite stress; format: in vivo
Protocol: Rice seeds (cv. Kitaake) were sterilized and germinated on wet paper in the dark at 30° C. Seedlings were transferred to sterilized potting soil and placed in a climate-controlled compartment at the Ghent University greenhouse complex (Melle, Belgium). The compartment was known to host a natural mite infestation; the causal mite had previously been identified as Steneotarsonemus spinki by professor Thomas van Leeuwen of the agrozoology lab at Ghent University. Pots were arranged in a completely randomized manner in the same tray.
To determine the effects of C4H inhibition on yield and fertility in the presence of mites, rice (Oryza sativa cv. Kitaake) was grown in a greenhouse until maturity and treated with a control or 300 μM PA foliar spray at bi-weekly intervals. This greenhouse is naturally infested with the panicle rice mite (Steneotarsonemus spinki).

[11] = rice, 300 μM foliar spray bi-weekly, three months after emergence

O=C(O)c1ccc(I)cc1 [4-IBA, 4-iodobenzoic acid]
increase of the number of non-lignified endodermal cells in the Casparian strip region [1]: 57%

O=C(O)C=Cc1ccc2c(c1)OCO2 [MDCA, 3,4-methylenedioxycinnamic acid]
increase of the number of non-lignified endodermal cells in the Casparian strip region [1]: 104%
IC50 [2]: 5.07 µM
increase of C4H expression in the root system (C4H gene): three-fold

O=C(O)c1ccc2c(c1)OCO2 [PA, Piperonylic acid]
increase of the number of non-lignified endodermal cells in the Casparian strip region [1]: 134%
spider mite mortality vs control (Tetranychus urticae [3]): No significant difference
change in number of mites present on the leaf vs control (Tetranychus urticae [4]): −49%
change in percentage of visibly chlorotic leaf area vs control (Tetranychus urticae [4]): −62%
change in reproductive factor of R. padi vs control (Rhopalosiphum padi [5]): 29%
reduction of russet mite population growth vs control (Aculops lycopersici [6]; 300 μM, not significant (p=0.052)): about 50%
reduction of russet mite population growth vs control (Aculops lycopersici [6]; 1000 μM, not significant (p=0.089)): about 50%
number of eggs deposited on cotton plants (Bemisia tabaci; 24 hours oviposition): did not affect
eggs failed to hatch (Bemisia tabaci; eight days after oviposition (control 3%)): 20%
eggs developed into nymphs (Bemisia tabaci; eight days after oviposition (control 16%)): 9%
IC50 [7]: 40 µM
change in reproductive factor of R. padi vs control (Rhopalosiphum padi [8]): −32%
L3 larvae alive (Spodoptera exigua; after seventy-two hours): 27
L3 larvae alive (Spodoptera exigua; after twenty-four hours): 28
number of thrips larvae recovered (mean±SE) [9]: 11.33±1.82 larvae
russet mite mortality vs control (Aculops lycopersici [10]): No significant difference
increase of C4H expression in the root system (C4H gene): ten-fold
change in number of seeds vs control (Steneotarsonemus spinki; rice cv. Kitaake, 300 μM foliar spray at bi-weekly intervals, three months after emergence): +104%
empty panicles vs control (Steneotarsonemus spinki; [11]): fewer empty panicles
tillers developed vs control (Steneotarsonemus spinki; [11]): more tillers
change in seed germination rate vs control (Steneotarsonemus spinki; seeds from treated plants, seven days on wet paper): +45%
